Test results from patent publication US20160178605A1, “Electrical Cell-substrate Impedance Sensor (ECIS)” (priority 2015, published 2016).

Test system: MCF-7 cells
Assay: SiNW-ECIS impedance and capacitance response of MCF-7 cells to antitubulin drugs
Type: cell-based, human
Conditions: PTX 0.1 nano-moles per liter; for normalized capacitance change (ΔC %) vs control sample / normalized impedance change (ΔZ %) vs control sample: MCF-7, 2 hours (T1) after drug incubation; for normalized capacitance change (ΔC %) vs control sample / normalized impedance change (ΔZ %) vs control sample / change in norm of impedance of treated cells between T1 and T2 / norm of capacitive changes, control sample more than drug treated values: ABZ 2.1 nano-moles per liter; for normalized impedance change (ΔZ %) vs control sample: mean; for norm of capacitive changes, control sample more than drug treated values: MCF-7, 6 hours (T2) after drug incubation
Method: In this example, the diagnostic response of cells membrane to extremely low dose of antitubulin drugs is investigated. Initially, MCF-7 cell lines, isolated from grade I human breast tumors, were obtained from the National Cell Bank of Iran (Pasteur Institute). Then, cells were maintained in a CO2 incubator (37° C., 5% CO2) in RPMI-1640 medium supplemented with 5% fetal bovine serum, and 1% penicillin/streptomycin. The fresh medium was replaced every other day. Then, the cultured cells were dropped on the surface of the SiNW-ECIS, designed and fabricated pursuant to teachings of the present application. Prior to each experiment, cells were trypsinized to be detached from the substrate and resuspended on the SiNW surface. To minimize the effect of trypsinization, the procedure may last for less than 4 minutes at room temperature of about 20° C. The samples were held in an incubator for about 4 hours to achieve cells attachment on the SiNWs. Thereafter, the ABZ drug with low concentrations of about 2.1 nano-moles per liter and the PTX drug with low concentrations of about 0.1 nano-moles per liter were added to individual samples. Finally, the signal recording and biological assays were investigated about 2 hours and 6 hours after the drug treatment (6 hours and 10 hours after the beginning of culturing process).
Referring to FIGS. 12A-12G, comparative normalized diagrams of impedance (designated by ΔZ % and represented by solid black lines) and capacitance changes (designated by ΔC % and represented by dashed grey lines) are illustrated for MCF-7 cells seeded on SiNW electrodes after treating by 2.1 nano-moles per liter of ABZ and 0.1 nano-moles per liter of PTX. The time interval between the drug incubation and the signal extraction are 2 hours (designated by T1) and 6 hours (designated by T2). In addition, the same diagrams are plotted for control sample prepared with no drug treatment stage.
According to the method described in the present example, the samples were maintained in an incubator so that the signal extraction was repeated 10 hours after cells dropping (6 hours after drug incubation for treated samples) to monitor the time evolution of drug induced MT polymerization/depolymerization on bioelectrical response of the membrane.

[1] = MCF-7, 2 hours (T1) vs 6 hours (T2) after drug incubation

Compound: CCCSc1ccc2nc(NC(=O)OC)[nH]c2c1 [ABZ, Albendazole]
- normalized capacitance change (ΔC %) vs control sample: 70%
- normalized impedance change (ΔZ %) vs control sample: 25%
- change in norm of impedance of treated cells between T1 and T2 [1]: about 60%
- norm of capacitive changes, control sample more than drug treated values: about 90%

Compound: CC(=O)O[C@H]1C(=O)[C@@]2(C)[C@H]([C@H](OC(=O)c3ccccc3)[C@]3(O)C[C@H](OC(=O)[C@H](O)[C@@H](NC(=O)c4ccccc4)c4ccccc4)C(C)=C1C3(C)C)[C@]1(OC(C)=O)CO[C@@H]1C[C@@H]2O [PTX, Paclitaxel]
- normalized capacitance change (ΔC %) vs control sample: about 60%
- normalized impedance change (ΔZ %) vs control sample: about 50%
- change in norm of impedance of treated cells between T1 and T2 [1]: 15%
- time dependent variation in capacitive behavior between T1 and T2 [1]: about 85%
- norm of capacitive changes, control sample more than drug treated values: ~75%
